# Earlier results in patent publication US9161911B2, “Gastric retentive pharmaceutical compositions for treatment and prevention of CNS disorders” (priority 2008, dated 2015).
Structure (SMILES),solubility in aqueous media,solubility in water
"NC(Cc1ccc(O)c(O)c1)C(=O)O (single isomer, unassigned; (-)) [Levodopa, (−)-L-alpha-amino-beta-(3,4-dihydroxybenzene) propanoic acid]",poorly soluble,slightly soluble (aqueous solubility (measured at 20° C.) in the range of 2% to 10% by weight)
"C[C@@](Cc1ccc(O)c(O)c1)(NN)C(=O)O.O [Carbidopa, (−)-L-alpha-hydrazino-alpha-methyl-beta-(3,4-dihydroxybenzene) propanoic acid monohydrate]",poorly soluble,slightly soluble (aqueous solubility (measured at 20° C.) in the range of 2% to 10% by weight)
